Measured values taken from patent publication US20180099931A1 (AbbVie S.à.r.l., priority 2016, published 2018).
Where two headings read alike, the source gives them in different places.

Molecular target: T1, F508delCFTR (Homo sapiens, UniProt P13569, DEL508-508)
T1 construct: expressed in transfected cells; host or cells: CFBE41o- human lung-derived epithelial cells (CFBE4lo-F508delCFTR-HRP), doxycycline-inducible
Assay: Cell Surface Expression-Horse Radish Peroxidase (CSE-HRP) Assay;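 for Maximum % activity (with co-corrector): co-corrector and positive control are both the same reference corrector at 2 µM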;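 for Maximum % activity (without co-corrector): percent of the 2 µM on-plate positive control corrector response above DMSO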
Assay type: cell-based
Settings: for Emax: read-out: Maximum % activity (without co-corrector)

[1] = test compound without co-corrector, read-out: EC50 (without co-corrector)
[2] = with co-corrector (2 μM of 3-[(2R,4R)-4-({[1-(2,2-difluoro-1,3-benzodioxol-5-yl)cyclopropyl]carbonyl}amino)-7-methoxy-3,4-dihydro-2H-chromen-2-yl]benzoic acid), read-out: EC50 (with co-corrector)
[3] = with co-corrector (2 μM), maximum at any tested concentration, normalized to on-plate positive control
[4] = without co-corrector, maximum at any tested concentration, normalized to on-plate positive control
[5] = CSE-HRP, test compound without co-corrector, read-out: EC50 (without co-corrector)
[6] = CSE-HRP, with co-corrector (2 μM of 3-[(2R,4R)-4-({[1-(2,2-difluoro-1,3-benzodioxol-5-yl)cyclopropyl]carbonyl}amino)-7-methoxy-3,4-dihydro-2H-chromen-2-yl]benzoic acid), read-out: EC50 (with co-corrector)
[7] = CSE-HRP, with co-corrector (2 μM), maximum at any tested concentration, normalized to on-plate positive control
[8] = CSE-HRP, without co-corrector, maximum at any tested concentration, normalized to on-plate positive control
[9] = test compound without co-corrector, maximum at any tested concentration, normalized to on-plate positive control
[10] = with co-corrector (2 μM of 3-[(2R,4R)-4-({[1-(2,2-difluoro-1,3-benzodioxol-5-yl)cyclopropyl]carbonyl}amino)-7-methoxy-3,4-dihydro-2H-chromen-2-yl]benzoic acid), maximum at any tested concentration, normalized to on-plate positive control

T1 sequence (P13569 with tags, fused parts or gaps DEL508-508): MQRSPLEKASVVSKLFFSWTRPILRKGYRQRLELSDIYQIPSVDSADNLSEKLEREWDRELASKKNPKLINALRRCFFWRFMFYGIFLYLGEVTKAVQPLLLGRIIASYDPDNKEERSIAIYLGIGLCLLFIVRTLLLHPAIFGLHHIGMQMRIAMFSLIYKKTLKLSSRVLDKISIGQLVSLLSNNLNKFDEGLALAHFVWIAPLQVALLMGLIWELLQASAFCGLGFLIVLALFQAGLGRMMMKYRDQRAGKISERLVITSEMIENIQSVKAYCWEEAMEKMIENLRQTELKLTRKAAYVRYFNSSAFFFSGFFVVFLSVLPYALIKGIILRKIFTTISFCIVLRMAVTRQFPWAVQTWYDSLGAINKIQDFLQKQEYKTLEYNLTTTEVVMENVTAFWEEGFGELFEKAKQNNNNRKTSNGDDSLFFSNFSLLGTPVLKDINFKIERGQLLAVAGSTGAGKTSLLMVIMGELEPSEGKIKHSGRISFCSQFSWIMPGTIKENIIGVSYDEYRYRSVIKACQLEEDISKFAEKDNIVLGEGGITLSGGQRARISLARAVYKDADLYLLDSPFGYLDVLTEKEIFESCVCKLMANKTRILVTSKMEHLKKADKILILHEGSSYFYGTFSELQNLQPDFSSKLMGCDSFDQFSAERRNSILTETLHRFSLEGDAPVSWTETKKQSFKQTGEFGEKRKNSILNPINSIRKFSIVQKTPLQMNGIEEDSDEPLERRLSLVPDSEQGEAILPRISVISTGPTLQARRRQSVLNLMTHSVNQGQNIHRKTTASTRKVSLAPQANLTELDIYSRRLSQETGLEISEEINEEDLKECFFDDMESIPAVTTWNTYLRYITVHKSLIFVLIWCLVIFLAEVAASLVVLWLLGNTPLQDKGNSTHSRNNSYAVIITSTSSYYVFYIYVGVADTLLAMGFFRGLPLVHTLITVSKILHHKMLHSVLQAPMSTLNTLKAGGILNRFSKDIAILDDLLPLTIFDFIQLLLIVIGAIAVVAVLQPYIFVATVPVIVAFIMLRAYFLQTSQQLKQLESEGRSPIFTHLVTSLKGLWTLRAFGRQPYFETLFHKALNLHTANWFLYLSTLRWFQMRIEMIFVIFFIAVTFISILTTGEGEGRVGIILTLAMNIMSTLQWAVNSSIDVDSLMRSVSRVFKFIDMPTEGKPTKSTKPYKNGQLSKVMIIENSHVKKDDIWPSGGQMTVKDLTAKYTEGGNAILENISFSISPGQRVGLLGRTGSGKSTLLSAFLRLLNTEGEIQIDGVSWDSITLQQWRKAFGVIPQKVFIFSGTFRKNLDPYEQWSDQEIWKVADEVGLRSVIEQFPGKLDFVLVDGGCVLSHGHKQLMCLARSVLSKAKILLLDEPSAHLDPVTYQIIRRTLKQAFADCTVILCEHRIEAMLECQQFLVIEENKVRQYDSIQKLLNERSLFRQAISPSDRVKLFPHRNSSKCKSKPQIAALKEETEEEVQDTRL

Row | EC50 [1] [µM] | EC50 [2] [µM] | Maximum % activity (with co-corrector) [3] | Emax [4] [%] | EC50 [5] [µM] | EC50 [6] [µM] | Maximum % activity (with co-corrector) [7] | Emax [8] [%] | Compound | also measured
1 | 1 to 10 | 1 to 10 | +++ (≥350) | 100 to 200 | – | – | – | – | COc1ccc(C23CC(C2)C3)cc1CN[C@H]1[C@H](C(C)(C)C)[C@@H](C(=O)O)N(C(=O)C2CCCCC2)[C@H]1c1cccnc1OC(F)F [Example I-228] | –
2 | 1 to 10 | 1 to 10 | +++ (≥350) | > 200 | – | – | – | – | COc1ccc(S(F)(F)(F)(F)F)cc1CN[C@H]1[C@H](C(C)(C)C)[C@@H](C(=O)O)N(C(=O)OC(C)C)[C@H]1c1cccnc1N(C)C [Example I-245] | –
3 | < 1 | < 1 | +++ (≥350) | > 200 | – | – | – | – | COc1ccc(C(C)(C)C)cc1CN[C@H]1[C@H](C(C)(C)C)[C@@H](C(=O)O)N(C(=O)[C@@H]2[C@@H](C(F)(F)F)[C@@H]3CC[C@H]2O3)[C@H]1c1cccnc1N(C)C (relative stereo) [Example I-204] | –
4 | – | – | – | – | 1 to 10 | 1 to 10 | +++ (≥350) | 100 to 200 | COc1ccc(C(C)(C)C)cc1CN[C@H]1[C@H](C(C)(C)C)[C@@H](C(=O)O)N(C(=O)Cc2cccnc2)[C@H]1c1ccccc1 [II-184] | –
5 | > 10 | 1 to 10 | – | – | – | – | – | – | CC(C)(C)[C@@H]1[C@@H](Nc2cc(Cl)ccn2)[C@@H](c2ccccc2)N(C(=O)C2CCCCC2)[C@H]1C(=O)O (racemic) [III-6] | Emax [9]: < 100%; Maximum % activity (with co-corrector) [10]: ++ (≥150 and <350)
6 | 1 to 10 | < 1 | – | – | – | – | – | – | COc1ccc(C2(C)CCC2)cc1CN[C@H]1[C@H](C(C)(C)C)[C@@H](C(=O)O)N(C(=O)[C@@H]2CCCO2)[C@H]1c1ccccc1C(C)C [II-593] | Emax [9]: > 200%; Maximum % activity (with co-corrector) [10]: +++ (≥350)
7 | < 1 | < 1 | +++ (≥350) | 100 to 200 | – | – | – | – | COc1ncc(CC2CCCCC2)cc1CN[C@H]1[C@H](C(C)(C)C)[C@@H](C(=O)O)N(C(=O)C2CCCCC2)[C@H]1c1ccccc1 [Example I-71] | –
8 | – | – | – | – | > 10 | 1 to 10 | ++ (≥150 and <350) | < 100 | CC(C)(C)[C@H]1[C@H](NCc2cc(F)cc(F)c2)[C@H](c2ccccc2)N(C(=O)C2CCCCC2)[C@@H]1C(=O)O [II-115] | –
9 | < 1 | < 1 | +++ (≥350) | > 200 | – | – | – | – | COc1ncc(C(F)(F)F)cc1CN[C@H]1[C@H](C(C)(C)C)[C@@H](C(=O)O)N(C(=O)OC(C)C)[C@H]1c1ccccc1C1CC1 [Example 91, (2S,3S,4S,5S)-3-tert-butyl-5-(2-cyclopropylphenyl)-4-({[2-methoxy-5-(trifluoromethyl)pyridin-3-yl]methyl}amino)-1-{[(propan-2-yl)oxy]carbonyl}pyrrolidine-2-carboxylic acid] | –
10 | – | – | – | – | 1 to 10 | 1 to 10 | +++ (≥350) | 100 to 200 | COc1ccc(C2(C)CCC2)cc1CN[C@H]1[C@H](C(C)(C)C)[C@@H](C(=O)O)N(C(=O)C2CCC2)[C@H]1c1ccccc1C(F)(F)F [Example I-279] | –
11 | – | – | – | – | 1 to 10 | < 1 | +++ (≥350) | > 200 | COc1cccc(-c2ccc(OC)c(CN[C@H]3[C@H](C(C)(C)C)[C@@H](C(=O)O)N(C(=O)C4CCCCC4)[C@H]3c3ccccc3)c2)c1 [II-277] | –
12 | > 10 | < 1 | – | – | – | – | – | – | COc1ccc(C(C)(C)C)cc1CN[C@H]1[C@H](C(C)(C)C)[C@@H](C(=O)O)N(C(=O)C2CCc3ccc(F)cc3O2)[C@H]1c1cccnc1N(C)C (single isomer, unassigned) [II-453] | Maximum % activity (without co-corrector) [9]: + (<100); Maximum % activity (with co-corrector) (with co-corrector (2 μM of 3-[(2R,4R)-4-({[1-(2,2-difluoro-1,3-benzodioxol-5-yl)cyclopropyl]carbonyl}amino)-7-methoxy-3,4-dihydro-2H-chromen-2-yl]benzoic acid), maximum at any tested concentration, normalized to on-plate positive control, 2 µM): ++ (≥150 and <350)
13 | < 1 | < 1 | +++ (≥350) | > 200 | – | – | – | – | CCOC(=O)N1[C@H](C(=O)O)[C@@H](C(C)(C)C)[C@H](NCc2cc(C(F)(F)F)cnc2OC)[C@@H]1c1ccccc1C(C)C [Example 97, (2S,3S,4S,5S)-3-tert-butyl-1-(ethoxycarbonyl)-4-({[2-methoxy-5-(trifluoromethyl)pyridin-3-yl]methyl}amino)-5-[2-(propan-2-yl)phenyl]pyrrolidine-2-carboxylic acid] | –
14 | 1 to 10 | 1 to 10 | – | – | – | – | – | – | COc1ccc(C(F)(F)F)cc1CN[C@H]1[C@H](C(C)(C)C)[C@@H](C(=O)O)N(C(=O)C2CCc3ccc(F)cc3O2)[C@H]1c1ccccc1 (some centres unmarked) [II-398] | Emax [9]: < 100%; Maximum % activity (with co-corrector) [10]: +++ (≥350)
15 | – | – | – | – | 1 to 10 | 1 to 10 | +++ (≥350) | < 100 | COc1cccc(S(=O)(=O)N2[C@H](C(=O)O)[C@@H](C(C)(C)C)[C@H](NCc3cc(C4CCC4)cnc3OC)[C@@H]2c2ccccc2C(C)C)n1 [Example I-303] | –
16 | 1 to 10 | < 1 | – | – | – | – | – | – | COc1ccc(C(C)(C)C)cc1CN[C@H]1[C@H](C(C)(C)C)[C@@H](C(=O)O)N(C(=O)[C@@H]2[C@H](C(F)(F)F)[C@@H]3CC[C@H]2O3)[C@H]1c1cccnc1N(C)C (relative stereo) [II-473] | Emax [9]: > 200%; Maximum % activity (with co-corrector) [10]: +++ (≥350)
17 | 1 to 10 | 1 to 10 | – | – | – | – | – | – | COc1ncc(C2CCC2)cc1CN[C@H]1[C@H](C(C)(C)C)[C@@H](C(=O)O)N(C(=O)C2COc3ccccc3O2)[C@H]1c1ccccc1 (some centres unmarked) [II-474] | Emax [9]: 100 to 200%; Maximum % activity (with co-corrector) [10]: +++ (≥350)
18 | – | – | – | – | 1 to 10 | 1 to 10 | ++ (≥150 and <350) | < 100 | COc1ccc(C(C)(C)C)cc1CN[C@H]1[C@H](C(C)(C)C)[C@@H](C(=O)O)N(C(=O)c2cc(C)nc(C)c2)[C@H]1c1ccccc1 [II-197] | –
19 | < 1 | < 1 | +++ (≥350) | > 200 | – | – | – | – | COc1ccc(C(C)(C)C)cc1CN[C@H]1[C@H](C(C)(C)C)[C@@H](C(=O)O)N(C(=O)OC(C)C)[C@H]1c1ccccc1C(C)C [Example 61, (2S,3S,4S,5S)-3-tert-butyl-4-{[(5-tert-butyl-2-methoxyphenyl)methyl]amino}-1-{[(propan-2-yl)oxy]carbonyl}-5-[2-(propan-2-yl)phenyl]pyrrolidine-2-carboxylic acid] | –
20 | – | – | – | – | 1 to 10 | 1 to 10 | +++ (≥350) | > 200 | COc1ncc(Br)cc1CN[C@H]1[C@H](C(C)(C)C)[C@@H](C(=O)O)N(C(=O)OC(C)C)[C@H]1c1ccccc1 [II-170] | –
21 | – | – | – | – | 1 to 10 | 1 to 10 | +++ (≥350) | > 200 | COc1ncc(C2CCC2)cc1CN[C@H]1[C@H](C(C)(C)C)[C@@H](C(=O)O)N(C(=O)[C@@H]2CCCCO2)[C@H]1c1ccccc1C1CC1 [Example I-296] | –
22 | 1 to 10 | 1 to 10 | – | – | – | – | – | – | CC(C)(C)[C@@H]1[C@@H](NCc2ccccc2OC(F)F)[C@@H](c2ccccc2)N(C(=O)C2CCCCC2)[C@H]1C(=O)O (racemic) [III-7] | Emax [9]: < 100%; Maximum % activity (with co-corrector) [10]: +++ (≥350)

Row | Compound | EC50 [1] [µM] | EC50 [2] [µM] | Maximum % activity (with co-corrector) [3] | Emax [4] [%] | EC50 [5] [µM] | EC50 [6] [µM] | Maximum % activity (with co-corrector) [7] | Emax [8] [%] | also measured
23 | COc1ccc(C(C)(C)C)cc1CN[C@H]1[C@H](C(C)(C)C)[C@@H](C(=O)O)N(C(=O)Oc2ccccc2)[C@H]1c1ccccc1 [Example I-153] | – | – | +++ (≥350) | – | – | – | – | – | EC50: < 1 µM; EC50 (EC50 (without co-corrector), test compound without co-corrector): 1 to 10 µM; Emax: > 200%
